Where two headings read alike, the source gives them in different places.
Experiments:
[1] = tested on: rapamycin specific antibody; assay: competitive inhibition ELISA, binding of the compound of Example 3 to rapamycin specific antibody (Table 2); conditions: for OD: compound of Example 3 0.17 μM, 492 nm
Procedure: The compound of Example 3 was used as a representative compound of this invention. Microtiter plates (Immulon I) were coated overnight with 100 μl of goat anti-mouse antibody (10 μg/ml in 10 mM potassium phosphate buffer, pH 7.2) at 4° C. The plates were flicked and blocked with 100 μl of 1% bovine sera albumin in phosphate buffered saline overnight at 4° C. After flicking and washing the plates three times with 0.2×PBS containing 0.02% Triton X-100 and 0.004% thimerosal, rapamycin specific antibody (100 μl of 1 μg/ml) was added to each well and incubated at room temperature for 1-4 hour. After flicking and washing the plates three times with 0.2×PBS containing 0.02% Triton X- 100 and 0.004% thimerosal, the compound of Example 3 (100 μl, 0.17 μM) in the presence or absence of various concentrations of rapamycin was added and incubated for 1 hour. After flicking and washing the plates three times with 0.2×PBS containing 0.02% Triton X-100 and 0.004% thimerosal, streptavidin conjugated to horseradish peroxidase (100 μl, 0.2 μg/ml) was incubated at room temperature for 1 hour in the dark. After flicking and washing the plates three times with 0.2×PBS containing 0.02% Triton X-100 and 0.004% thimerosal, OPD substrate was added and the plates were incubated covered for 15 min. at room temperature in the dark. The optical density was read on a spectrophotometer at 492 nm.

[2] = tested on: T-cell proliferation (cells from the thymus of normal C3H mice); assay: comitogen-induced thymocyte proliferation procedure (LAF); assay type: cell-based; conditions: for IC50 / inhibition at 0.0001 µM / inhibition at 0.001 µM / inhibition at 0.003 µM / inhibition at 0.01 µM / inhibition at 1 µM: Mus musculus, T-cell; for inhibition at 0.0001 µM: 0.1 nM (so in the source); for inhibition at 0.001 µM: 1 nM; for inhibition at 0.003 µM: 3 nM; for inhibition at 0.01 µM: 10 nM; for ratio compared to rapamycin: >1 = greater inhibition than rapamycin
Procedure: Immunosuppressive activity for a representative compound of this invention was evaluated in an in vitro standard pharmacological test procedure to measure the inhibition of lymphocyte proliferation (LAF).
The comitogen-induced thymocyte proliferation procedure (LAF) was used as an in vitro measure of the immunosuppressive effects of representative compounds. Briefly, cells from the thymus of normal C3H mice are cultured for 72 hours with PHA and IL-1 and pulsed with tritiated thymidine during the last six hours. Cells are cultured with and without various concentrations of rapamycin, cyclosporin A, or test compound. Cells are harvested and incorporated radioactivity is determined. Inhibition of lymphoproliferation is assessed as percent change in counts per minute from non-drug treated controls. For each compound evaluated, rapamycin was also evaluated for the purpose of comparison. An IC50 was obtained for each test compound as well as for rapamycin. […] The results are also expressed as a ratio compared to rapamycin. A positive ratio indicates immunosuppressive activity. […] Calculation of the ratio is shown below. [formula]

IgE-like antibodies = conditions: Martel et al.; cited from earlier work
[3] = biological target: glutathione S-transferase-FK506 binding protein (GST-FKBP) (Homo sapiens, UniProt P62942); assay: Rapamycin Competitive Binding Assay using the Compound of Example 3, receptor based (Table 3); conditions: compound of Example 3 50 ng/ml, 450 nm
Procedure: The following is an example of the use of the compounds of this invention in a receptor based assay to measure rapamycin levels using a rapamycin-binding protein and the compound of Example 3 as the ligand. Wells of microtiter plates were coated with 0.5 μg/well of the fusion protein, glutathione S-transferase-FK506 binding protein (GST-FKBP), in 100 μl of 0.02M HEPES buffer, pH 7.4. Plates were incubated overnight at 4° C. Plates were washed 3 × with HEPES buffer. Well surfaces were blocked by the addition of 1% bovine serum albumin fraction V (BSA) in HEPES buffer ([…]). Plates were incubated for 1 hour at ambient temperature. Plates were washed three times. Various concentrations of rapamycin were added to the compound of Example 3 (50 ng/ml) and 100 μl of the solutions were added to wells in triplicate. After incubation of the plates at ambient temperature followed by washing the plates with HEPES buffer, 100 μl of diluted avidin-horseradish peroxidase conjugate was added to each well. After incubation for 1 hour at ambient temperature and washing five times, 100 μl of tetramethylbenzidine substrate was added to each well. The plates were incubated for 30 minutes in the dark at ambient temperature. The reactions were stopped and the optical density was read at 450 nm.

[4] = tested on: experimental allergic encephalomyelitis model; conditions: model for multiple sclerosis; Martel et al.; cited from earlier work
adjuvant arthritis model = conditions: model for rheumatoid arthritis; Martel et al.; cited from earlier work
RAP-42-OVAF2#1MoAb [5] = assay: FPIA competition of the binding between the antibody and A3 tracer
Description: (§1) The hybridoma cell line in P4G1 was cloned by limiting dilution and is designated as hybridoma cell line, RAP-42-OVAF2 #1hc-. The hybridoma cell line, RAP-42-OVAF2 #1hc, was deposited under the terms of the Budapest Treaty with the American Type Culture Collection (ATCC) of 12301 Parklawn Drive, Rockville, Md., 20852, U.S.A., on Mar. 10, 1994, and was granted accession number HB 11568. […] The ring opened rapamycin-specific antibody, designated as RAP-42-OVAF2 #1MoAb, was isolated and purified using conventional methodology.

FKBP12 = assay: Fluorescent Polarization Immunoassay (FPIA), tracer with FKBP12; assay type: binding
Description: as §1

[6] = Fluorescent Polarization Immunoassay (FPIA), tracer background
Description: as §1

RAP-42-OVAF2#1MoAb [7] = assay: Fluorescent Polarization Immunoassay (FPIA), tracer with antibody; assay type: binding
Description: as §1

Streptavidin = assay: BIAcore binding of the compound of Example 3 to streptavidin conjugated matrix; conditions: 2.5 mM injected

Sequence of glutathione S-transferase-FK506 binding protein (GST-FKBP) (P62942 2-108): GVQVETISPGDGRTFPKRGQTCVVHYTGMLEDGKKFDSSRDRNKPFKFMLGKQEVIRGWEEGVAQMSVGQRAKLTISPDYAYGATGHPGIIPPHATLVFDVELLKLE

What does the source list for CO[C@H]1C[C@@H]2CC[C@@H](C)[C@@](O)(O2)C(=O)C(=O)N2CCCC[C@H]2C(=O)O[C@H]([C@H](C)C[C@@H]2CC[C@@H](O)[C@H](OC)C2)CC(=O)[C@H](C)/C=C(\C)[C@@H](O)[C@@H](OC)C(=O)[C@H](C)C[C@H](C)/C=C/C=C/C=C/1C [rapamycin]?
% INHIBITION of binding of the compound of Example 3 ([1]; rapamycin 0.005 μM): 6.6%; OD ([1]; rapamycin 0.005 μM): 1.866; % INHIBITION of binding of the compound of Example 3 ([1]; rapamycin 0.05 μM): 7.8%; OD ([1]; rapamycin 0.05 μM): 1.842; % INHIBITION of binding of the compound of Example 3 ([1]; rapamycin 0.5 μM): 30.1%; OD ([1]; rapamycin 0.5 μM): 1.419; % INHIBITION of binding of the compound of Example 3 ([1]; rapamycin 5 μM): 67.6%; OD ([1]; rapamycin 5 μM): .705; IC50 ([2]; first evaluation): 6.7 nM; IC50 ([2]; second evaluation): 0.8 nM; inhibition of formation of IgE-like antibodies (IgE-like antibodies): effectively inhibited; Optical Density ([3]; rapamycin 1.5625 ng/ml): 2.6160; Optical Density ([3]; rapamycin 3.125 ng/ml): 2.3040; Optical Density ([3]; rapamycin 6.25 ng/ml): 2.0557; Optical Density ([3]; rapamycin 12.5 ng/ml): 1.3913; Optical Density ([3]; rapamycin 25 ng/ml): 0.7473; Optical Density ([3]; rapamycin 50 ng/ml): 0.3573; Optical Density ([3]; rapamycin 100 ng/ml): 0.2433; Optical Density ([3]; rapamycin 200 ng/ml): 0.2177; effect in experimental allergic encephalomyelitis model [4]: effective; effect in adjuvant arthritis model (adjuvant arthritis model): effective; polarization, competition of the binding between the antibody and A3 tracer (RAP-42-OVAF2#1MoAb [5]; after 38 min): 121 mP; polarization, competition of the binding between the antibody and A3 tracer (RAP-42-OVAF2#1MoAb [5]; at 3 min): 155 mP

Which polarization reading (FKBP12; A3 in presence of FKBP12 (background levels)) does the source give for “secorapamycin 42-ester with succinic acid conjugate with 5-fluoresceinamine [Example A3]” here?
Its polarization reading is 79 mP.

And the “background reading (polarization)” value ([6]; A3 tracer alone)?
Its value is 75 mP.

What about the polarization reading (RAP-42-OVAF2#1MoAb [7]; A3 in presence of RAP-42-OVAF2#1MoAb) of the same compound?
The polarization reading was 178 mP.

What does the source list for CO[C@H]1C[C@@H]2CC[C@@H](C)[C@@](O)(O2)C(=O)C(=O)N2CCCC[C@H]2C(=O)O[C@H]([C@H](C)C[C@@H]2CC[C@@H](OC(=O)CCC(=O)NCC(=O)Nc3ccc4c(c3)C(=O)OC43c4ccc(O)cc4Oc4cc(O)ccc43)[C@H](OC)C2)CC(=O)[C@H](C)/C=C(\C)[C@@H](O)[C@@H](OC)C(=O)[C@H](C)C[C@H](C)/C=C/C=C/C=C/1C [rapamycin 42-ester with succinic acid conjugate with 5-glycinylfluoresceinamine]?
polarization (FKBP12; tracer 10 nM, after addition of an excess of FKBP12): 195 mP; polarization ([6]; tracer alone, 10 nM, 100 mM sodium phosphate pH 7.5): 77 mP; polarization (RAP-42-OVAF2#1MoAb [7]; tracer 10 nM, excess of RAP-42-OVAF2#1MoAb): 84 mP

What does the source list for CO[C@H]1C[C@@H]2CC[C@@H](C)[C@@](O)(O2)C(=O)C(=O)N2CCCC[C@H]2C(=O)O[C@H]([C@H](C)C[C@@H]2CC[C@@H](OC(=O)CNC(=O)CCCC[C@@H]3SC[C@@H]4NC(=O)N[C@@H]43)[C@H](OC)C2)CC(=O)[C@H](C)/C=C(\C)[C@@H](O)[C@@H](OC)C(=O)[C@H](C)C[C@H](C)/C=C/C=C/C=C/1C [Example 3, Rapamycin 42-ester with glycylbiotin]?
inhibition at 0.0001 µM ([2]; first evaluation): 98%; inhibition at 0.001 µM ([2]; first evaluation): 46%; inhibition at 0.003 µM ([2]; first evaluation): 65%; inhibition at 0.01 µM ([2]; first evaluation): 95%; inhibition at 1 µM ([2]; first evaluation): 99%; IC50 ([2]; first evaluation, read-out: IC50): 2.8 nM; inhibition at 0.0001 µM ([2]; second evaluation): 94%; inhibition at 0.001 µM ([2]; second evaluation): 16%; inhibition at 0.003 µM ([2]; second evaluation): 51%; inhibition at 0.01 µM ([2]; second evaluation): 88%; inhibition at 1 µM ([2]; second evaluation): 96%; IC50 ([2]; second evaluation, read-out: IC50): 1.3 nM; ratio compared to rapamycin ([2]; first evaluation): 2.39; ratio compared to rapamycin ([2]; second evaluation): 0.63; resonance units bound (Streptavidin): 115 resonance units

Which “polarization, competition of the binding between the antibody and A3 tracer” value (RAP-42-OVAF2#1MoAb [5]; after 38 min) does the source give for CO[C@@H](C[C@@H]1CC[C@@H](C)[C@](O)(C(=O)C(=O)N2CCCC[C@H]2C(=O)O)O1)/C(C)=C/C=C/C=C/[C@@H](C)C[C@@H](C)C(=O)[C@H](OC)[C@H](O)/C(C)=C/[C@@H](C)C(=O)/C=C/[C@H](C)C[C@@H]1CC[C@@H](O)[C@H](OC)C1 [secorapamycin] here?
The value was 89 mP.

What about the “polarization, competition of the binding between the antibody and A3 tracer” value (RAP-42-OVAF2#1MoAb [5]; at 3 min) of the same compound?
The value was 105 mP.

Reference: patent US5504091A, “Biotin esters of rapamycin” (American Home Products Corporation, priority 1994, dated 1996)
